Assays:
Type in all cases: biochemical
[1] = biological target: T1, recombinant alpha-glucosidase II (murine full-length glucosidase II, alpha and beta subunits, Glu 2) (Mus musculus, UniProt Q8BHN3); assay: Alpha-glucosidase II assay (4-methylumbelliferyl-alpha-D-pyranoside substrate, fluorescence); conditions: Glucosidase 2; read-out: Glu2 IC50
T1 construct: made in house; host or cells: HEK-293T cells transduced with BacMam viruses (75% alpha, 25% beta); protein harvested from culture supernatant
T1 sequence (O08795 15-521): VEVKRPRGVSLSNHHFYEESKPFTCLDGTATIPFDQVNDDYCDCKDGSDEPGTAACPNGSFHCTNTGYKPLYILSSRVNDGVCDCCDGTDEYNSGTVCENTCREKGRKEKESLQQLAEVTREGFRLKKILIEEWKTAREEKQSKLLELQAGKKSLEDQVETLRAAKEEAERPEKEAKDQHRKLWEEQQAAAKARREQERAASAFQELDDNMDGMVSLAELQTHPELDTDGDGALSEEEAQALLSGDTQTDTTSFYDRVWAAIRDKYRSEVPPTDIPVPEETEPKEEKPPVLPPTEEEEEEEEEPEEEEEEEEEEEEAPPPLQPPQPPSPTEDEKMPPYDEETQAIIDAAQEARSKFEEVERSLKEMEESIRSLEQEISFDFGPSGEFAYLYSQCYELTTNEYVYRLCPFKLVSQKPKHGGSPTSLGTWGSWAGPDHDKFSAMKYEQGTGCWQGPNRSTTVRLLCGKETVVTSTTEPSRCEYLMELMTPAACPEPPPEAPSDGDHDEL
T1 sequence (Q8BHN3 33-944): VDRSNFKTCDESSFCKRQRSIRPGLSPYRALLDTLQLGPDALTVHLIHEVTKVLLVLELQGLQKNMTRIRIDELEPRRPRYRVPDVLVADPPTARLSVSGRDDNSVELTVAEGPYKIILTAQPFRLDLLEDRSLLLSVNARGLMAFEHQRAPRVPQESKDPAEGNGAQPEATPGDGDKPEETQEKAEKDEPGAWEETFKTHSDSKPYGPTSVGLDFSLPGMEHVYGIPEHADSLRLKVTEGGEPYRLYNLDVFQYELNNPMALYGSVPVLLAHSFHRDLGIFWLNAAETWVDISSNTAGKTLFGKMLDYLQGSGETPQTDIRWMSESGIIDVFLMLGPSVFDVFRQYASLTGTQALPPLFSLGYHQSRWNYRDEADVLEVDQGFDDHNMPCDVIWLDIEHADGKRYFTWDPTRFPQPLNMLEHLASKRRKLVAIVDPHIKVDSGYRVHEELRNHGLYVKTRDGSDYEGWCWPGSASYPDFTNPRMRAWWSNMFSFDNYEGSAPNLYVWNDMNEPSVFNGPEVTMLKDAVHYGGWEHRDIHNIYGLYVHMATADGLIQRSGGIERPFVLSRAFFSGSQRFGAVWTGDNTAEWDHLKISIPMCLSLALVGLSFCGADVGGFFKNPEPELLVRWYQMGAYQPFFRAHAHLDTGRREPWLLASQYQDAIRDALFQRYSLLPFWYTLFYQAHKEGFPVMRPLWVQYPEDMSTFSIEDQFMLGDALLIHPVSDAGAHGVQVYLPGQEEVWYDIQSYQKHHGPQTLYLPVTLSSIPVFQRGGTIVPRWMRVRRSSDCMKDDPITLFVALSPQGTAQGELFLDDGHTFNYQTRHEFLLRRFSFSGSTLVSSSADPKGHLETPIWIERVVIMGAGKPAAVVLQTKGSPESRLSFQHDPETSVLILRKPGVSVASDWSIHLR

[2] = biological target: recombinant human GAA (acid alpha-glucosidase) (Homo sapiens, UniProt P10253); assay: Acid alpha-glucosidase (GAA) assay (4-methylumbelliferyl-alpha-D-pyranoside substrate, fluorescence)
Summary of the method: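 IC50 from 4-PL curve fit of percent inhibition, based on fluorescence (365/440 nm) of released methylumbelliferone relative to uninhibited enzyme. Compound dilutions and human GAA incubated 60 min, 37 °C, before 20 min substrate reaction at 37 °C, quenched at pH 10.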

[3] = biological target: T2, recombinant human GBA (beta-glucocerebrosidase) (Homo sapiens, UniProt P04062); assay: Beta-glucocerebrosidase (GBA, glucosylceramidase) assay (4-methylumbelliferyl-beta-D-pyranoside substrate, fluorescence)
T2 sequence (P04062 40-536): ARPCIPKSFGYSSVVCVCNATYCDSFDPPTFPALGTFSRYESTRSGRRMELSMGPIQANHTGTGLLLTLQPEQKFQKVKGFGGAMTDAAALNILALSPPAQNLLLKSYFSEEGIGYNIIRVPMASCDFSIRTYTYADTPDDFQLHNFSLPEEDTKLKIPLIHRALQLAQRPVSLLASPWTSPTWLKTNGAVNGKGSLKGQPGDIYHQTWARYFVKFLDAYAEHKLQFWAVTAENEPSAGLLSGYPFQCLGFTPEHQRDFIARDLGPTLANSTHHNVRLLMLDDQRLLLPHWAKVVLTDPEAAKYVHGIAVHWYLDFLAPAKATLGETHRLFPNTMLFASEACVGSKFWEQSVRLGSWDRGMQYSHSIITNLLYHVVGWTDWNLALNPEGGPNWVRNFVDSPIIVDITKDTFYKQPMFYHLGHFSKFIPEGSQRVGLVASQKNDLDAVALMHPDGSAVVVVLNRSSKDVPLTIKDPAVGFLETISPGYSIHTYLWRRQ
Summary of the method: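 IC50 by four-parameter fit of percent inhibition, with product fluorescence (365/440 nm) read after a glycine/NaOH pH 10 stop. Compound and commercial recombinant human enzyme were incubated 60 min at 37 °C before a further 60 min at 37 °C with 4-methylumbelliferyl-beta-D-pyranoside substrate.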

[4] = biological target: rat maltase (partially purified alpha-glucosidase from intestinal rat powder); assay: Intestinal alpha-glucosidase assay, maltose substrate (Glucose GO Kit)
Summary of the method: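 Rat intestinal enzyme prep + test cpd dilutions, 60 min 37 °C; add maltose (maltase) or sucrose (sucrase), 30 min 37 °C; stop 90 °C 5 min. Glucose readout (glucose oxidase kit). IC50 from 4-PL fit of % inhibition vs conc.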

[5] = biological target: rat sucrase (partially purified alpha-glucosidase from intestinal rat powder) (Rattus norvegicus, UniProt P23739); assay: Intestinal alpha-glucosidase assay, sucrose substrate (Glucose GO Kit)
Sequence of rat sucrase (partially purified alpha-glucosidase from intestinal rat powder) (P23739 whole entry): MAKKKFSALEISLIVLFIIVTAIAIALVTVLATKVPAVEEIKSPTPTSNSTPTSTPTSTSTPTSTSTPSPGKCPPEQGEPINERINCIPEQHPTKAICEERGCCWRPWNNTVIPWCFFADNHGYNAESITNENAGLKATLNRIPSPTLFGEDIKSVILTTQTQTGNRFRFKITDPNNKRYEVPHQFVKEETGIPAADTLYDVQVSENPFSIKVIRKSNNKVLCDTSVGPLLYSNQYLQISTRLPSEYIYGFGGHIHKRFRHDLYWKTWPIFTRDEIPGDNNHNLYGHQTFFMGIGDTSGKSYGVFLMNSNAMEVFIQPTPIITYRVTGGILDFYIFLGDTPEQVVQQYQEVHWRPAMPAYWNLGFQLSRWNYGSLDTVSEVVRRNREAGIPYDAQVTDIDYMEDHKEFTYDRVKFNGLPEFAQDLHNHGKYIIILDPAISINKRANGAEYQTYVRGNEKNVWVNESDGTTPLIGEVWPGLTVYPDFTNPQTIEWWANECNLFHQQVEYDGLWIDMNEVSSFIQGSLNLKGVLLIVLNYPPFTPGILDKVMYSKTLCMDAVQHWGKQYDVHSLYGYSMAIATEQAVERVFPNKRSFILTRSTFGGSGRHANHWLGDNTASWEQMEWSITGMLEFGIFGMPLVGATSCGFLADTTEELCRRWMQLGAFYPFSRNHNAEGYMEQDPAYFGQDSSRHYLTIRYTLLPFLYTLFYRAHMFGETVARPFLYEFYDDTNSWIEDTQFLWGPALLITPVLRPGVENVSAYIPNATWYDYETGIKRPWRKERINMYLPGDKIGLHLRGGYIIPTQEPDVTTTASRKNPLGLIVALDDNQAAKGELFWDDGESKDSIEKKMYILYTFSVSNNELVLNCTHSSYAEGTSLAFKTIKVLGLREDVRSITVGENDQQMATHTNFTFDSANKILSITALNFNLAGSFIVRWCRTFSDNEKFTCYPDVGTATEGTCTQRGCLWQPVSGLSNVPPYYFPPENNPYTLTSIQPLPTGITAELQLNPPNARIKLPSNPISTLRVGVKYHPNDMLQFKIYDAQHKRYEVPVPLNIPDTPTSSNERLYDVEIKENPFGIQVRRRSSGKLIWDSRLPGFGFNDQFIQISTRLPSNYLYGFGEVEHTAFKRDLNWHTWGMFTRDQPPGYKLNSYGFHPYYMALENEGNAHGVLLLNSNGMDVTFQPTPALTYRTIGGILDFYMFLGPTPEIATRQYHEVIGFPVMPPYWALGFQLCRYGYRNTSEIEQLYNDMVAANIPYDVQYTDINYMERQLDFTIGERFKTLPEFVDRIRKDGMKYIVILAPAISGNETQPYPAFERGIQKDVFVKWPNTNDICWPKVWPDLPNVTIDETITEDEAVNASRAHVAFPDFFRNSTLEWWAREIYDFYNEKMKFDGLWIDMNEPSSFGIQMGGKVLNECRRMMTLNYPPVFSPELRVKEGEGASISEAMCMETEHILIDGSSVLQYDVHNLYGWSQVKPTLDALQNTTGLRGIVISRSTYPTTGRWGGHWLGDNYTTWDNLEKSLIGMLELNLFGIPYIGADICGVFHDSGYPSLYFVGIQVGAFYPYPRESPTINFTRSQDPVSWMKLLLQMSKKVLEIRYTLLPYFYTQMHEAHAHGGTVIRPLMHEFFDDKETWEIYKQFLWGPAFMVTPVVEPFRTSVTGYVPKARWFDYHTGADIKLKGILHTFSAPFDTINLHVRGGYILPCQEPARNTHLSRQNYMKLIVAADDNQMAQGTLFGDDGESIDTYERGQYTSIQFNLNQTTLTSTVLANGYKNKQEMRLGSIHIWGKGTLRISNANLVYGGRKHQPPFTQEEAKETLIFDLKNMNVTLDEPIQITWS
Summary of the method: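 Partially purified alpha-glucosidase from rat intestinal powder was preincubated 60 min at 37 °C with serial compound dilutions, then given maltose or sucrose and incubated 30 min at 37 °C.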

SMILES	IC50 [1] [nM]	IC50 [2] [nM]	IC50 [3] [nM]	IC50 [4] [nM]	IC50 [5] [nM]
[N-]=[N+]=Nc1ccc(NCCNS(=O)(=O)NCCN2C[C@H](O)[C@@H](O)[C@H](O)[C@H]2CO)c([N+](=O)[O-])c1 [Compound 1275, (2R,3R,4R,5S)-1-{2-[({2-[(4-azido-2-nitrophenyl)amino]ethyl}sulfamoyl)amino]ethyl}-2-(hydroxymethyl)piperidine-3,4,5-triol]	366	556	2170	288	413
N#Cc1cc(-c2ncccn2)ccc1NCCCCCCN1C[C@H](O)[C@@H](O)[C@H](O)[C@H]1CO [Compound 1256, 5-(pyrimidin-2-yl)-2-({6-[(2R,3R,4R,5S)-3,4,5-trihydroxy-2-(hydroxymethyl)piperidin-1-yl]hexyl}amino)benzonitrile]	6	33	1230	10	88
Nc1ccc(NCCc2ccccc2CCN2C[C@H](O)[C@@H](O)[C@H](O)[C@H]2CO)c([N+](=O)[O-])c1Cl [Compound 1239, (2R,3R,4R,5S)-1-[2-(2-{2-[(4-amino-3-chloro-2-nitrophenyl)amino]ethyl}phenyl)ethyl]-2-(hydroxymethyl)piperidine-3,4,5-triol]	108	1240	114	< 1	294
Cc1cc(NCc2ccc(CN3C[C@H](O)[C@@H](O)[C@H](O)[C@H]3CO)cc2)cc(-n2ccnn2)c1 [Compound 1323, (2R,3R,4R,5S)-2-(hydroxymethyl)-1-{[4-({[3-methyl-5-(1H-1,2,3-triazol-1-yl)phenyl]amino}methyl)phenyl]methyl}piperidine-3,4,5-triol]	382	76	> 100000	11	37
[N-]=[N+]=Nc1ccc(NCCN2CC(OCCN3C[C@H](O)[C@@H](O)[C@H](O)[C@H]3CO)C2)c([N+](=O)[O-])c1 [Compound 1271, (2R,3R,4R,5S)-1-{2-[(1-{2-[(4-azido-2-nitrophenyl)amino]ethyl}azetidin-3-yl)oxy]ethyl}-2-(hydroxymethyl)piperidine-3,4,5-triol]	539	1360	1900	33	266
Cc1cc(NCc2cccc(CN3C[C@H](O)[C@@H](O)[C@H](O)[C@H]3CO)c2)cc(C2=COCCO2)c1 [Compound 1032, (2R,3R,4R,5S)-1-{[3-({[3-(5,6-dihydro-1,4-dioxin-2-yl)-5-methylphenyl]amino}methyl)phenyl]methyl}-2-(hydroxymethyl)piperidine-3,4,5-triol]	47700	4170	> 100000	73	36
O=[N+]([O-])c1cc(N2CC3CC2CO3)ccc1NCc1ccc(CN2C[C@@H](O)[C@H](O)[C@@H](O)[C@@H]2CO)cc1 (stereo in doubt) [Compound 1015, (2S,3S,4S,5R)-2-(hydroxymethyl)-1-[(4-{[(2-nitro-4-{2-oxa-5-azabicyclo[2.2.1]heptan-5-yl}phenyl)amino]methyl}phenyl)methyl]piperidine-3,4,5-triol]	2	129	> 100000	8	78
OC[C@@H]1[C@@H](O)[C@H](O)[C@@H](O)CN1Cc1ccc(CNc2ccc(Br)cc2)cc1 [Compound 1028, (2R,3R,4R,5S)-1-[(4-{[(4-bromophenyl)amino]methyl}phenyl)methyl]-2-(hydroxymethyl)piperidine-3,4,5-triol]	827	666	12900	11	11
CS(=O)(=O)c1cc(NCc2cccc(CN3C[C@H](O)[C@@H](O)[C@H](O)[C@H]3CO)c2)cc(N2CCOCC2)c1 [Compound 1036, (2R,3R,4R,5S)-2-(hydroxymethyl)-1-{[3-({[3-methanesulfonyl-5-(morpholin-4-yl)phenyl]amino}methyl)phenyl]methyl}piperidine-3,4,5-triol]	49500	2760	> 100000	77	219
CN(C)Cc1ccc(NCCCCCCN2C[C@H](O)[C@@H](O)[C@H](O)[C@H]2CO)c(F)c1 [Compound 1236, (2R,3R,4R,5S)-1-[6-({4-[(dimethylamino)methyl]-2-fluorophenyl}amino)hexyl]-2-(hydroxymethyl)piperidine-3,4,5-triol]	39	556	4630	36	254
CS(=O)(=O)c1cc(Br)cc(NCc2ccc(CN3C[C@H](O)[C@@H](O)[C@H](O)[C@H]3CO)cc2)c1 [Compound 1025, (2R,3R,4R,5S)-1-[(4-{[(3-bromo-5-methanesulfonylphenyl)amino]methyl}phenyl)methyl]-2-(hydroxymethyl)piperidine-3,4,5-triol]	229	135	38900	4	2
NC(=O)CCN(CCNc1ccc(-c2ncccn2)cc1[N+](=O)[O-])CCN1C[C@H](O)[C@@H](O)[C@H](O)[C@H]1CO [Compound 1226, 3-[(2-{[2-nitro-4-(pyrimidin-2-yl)phenyl]amino}ethyl)({2-[(2R,3R,4R,5S)-3,4,5-trihydroxy-2-(hydroxymethyl)piperidin-1-yl]ethyl})amino]propanamide]	1350	20900	3210	4630	793
[N-]=[N+]=Nc1ccc(NCCn2cc(CCN3C[C@H](O)[C@@H](O)[C@H](O)[C@H]3CO)nn2)c([N+](=O)[O-])c1 [Compound 1272, (2R,3R,4R,5S)-1-[2-(1-{2-[(4-azido-2-nitrophenyl)amino]ethyl}-1H-1,2,3-triazol-4-yl)ethyl]-2-(hydroxymethyl)piperidine-3,4,5-triol]	39	800	4100	239	1880
